Read-outs that look alike come from different tables or passages of the source.
Columns and labels:
[1] = Ionization behaviour from variation of log k'80 PLRP-S at three pHs; format: physicochemical; settings: for A/B: acid or base profile: log k'80 PLRP-S at acidic, neutral and basic pH
Source text: The ionization constant (usually reported as pKa) is an important parameter for evaluating ionizable molecules since it may have a decisive impact on the in vitro ADME properties. […] Since the experimental determination of pKa is not a trivial assay and a certain degree of expertise is required, Caron’s group observed that the ionization behaviour (not the pKa) of a molecule can be obtained by monitoring the variation of the log of the capacity factor in the PLRP-S system (log k'80 PLRP-S) vs. the pH [15]. […] In many cases, ionization is completely overlooked, and in some instances, it is predicted using standard calculators not designed for large, flexible molecules.
Then, we focused on experimental descriptors. We first explored the ionization behavior of the three PROTACS by monitoring the variation in log k'80 PLRP-s at three pHs.

[2] = IAM chromatography (log kw^IAM and Δ log kw^IAM); format: physicochemical; settings: for log kw^IAM: IAM column, extrapolated to 0% organic solvent; for Δ log kw^IAM: polarity descriptor
Source text: Furthermore, RP-HPLC methods generate biomimetic environments. For example, immobilized artificial membrane (IAM) chromatography, first introduced by Charles Pidgeon and his colleagues, is used to simulate biological cell membranes. IAM columns consist of a monolayer of phosphatidylcholine covalently bound to an inert silica support . The reference descriptor is the logarithm of the capacity factor at 0% organic solvent (extrapolated value), named log kW^IAM. In the IAM system, the retention of charged molecules also depends on the electrostatic interactions with the phospholipid heads.
Without entering the method details that can be retrieved in the literature, Δ log kw^IAM represents the polarity of the analyte.

[3] = Chamelogk chromatographic chameleonicity descriptor (PLRP-S); format: physicochemical; settings: Exp. minus Ext. log k' 100 PLRP-S
Method: Therefore, we recently implemented a chromatographic descriptor, Chamelogk, that measures chameleonicity in a unique and dynamic system. To obtain Chamelogk (Figure 5B), the first step involves the experimental determination of the capacity factor (log k' PLRP-S) at 50, 60, and 70 % of acetonitrile. Then, the linear correlation between the log k' PLRP-S and the percentage of MeCN is determined. The equation derived from the linear correlation is then applied to extrapolate the capacity factor at 100 % (called Ext. log k’ 100 PLRP-S). Then, the experimental value at 100 % MeCN is measured (named Exp. log k’ 100 PLRP-S) and the difference with the extrapolated value is calculated. Thus, Chamelogk is defined as the capacity factor difference (Δ log k') between the experimental log k' measured at 100 % MeCN (Exp. log k' 100) and the extrapolated value (Ext. log k’ 100), as shown by Equation 2 and Figure 5B.

[4] = tested on: enzalutamide-insensitive tumours; parameters: method as in PMID 36508999; settings: cited from earlier work
[5] = BRlogD chromatographic lipophilicity (octanol/water surrogate)
[6] = cited from earlier work
[7] = preclinical models; cited from earlier work
[8] = tested on: advanced breast cancer; parameters: method as in doi:10.1016/j.annonc.2023.09.567; settings: phase I and II, cited from earlier work
[9] = tested on: ER (estrogen receptor); parameters: method as in doi:10.1016/j.annonc.2023.09.567; settings: tumor cell lines, in vitro; cited from earlier work
[10] = tested on: Bcl-xL (B-cell lymphoma extra-large); parameters: method as in PMID 32677976; settings: cancer cells, preclinical studies; cited from earlier work
[11] = mouse; cited from earlier work
[12] = RP-HPLC, surrogate of octanol/water

| A/B: acid or base profile [1] | Ionization state at pH 7 [1] | log kw^IAM [2] | Δ log kw^IAM [2] | Chamelogk [3] | chromatographic logD [5] | chromatographic logD [5, 12] | SMILES | Tumour growth in vivo [4] | Absorption [6] | Oral bioavailability F [7] | Clinical activity ([8]; advanced breast cancer patients) | Tolerability ([8]; all doses orally administered) | ER degradation [9] | Degradation of Bcl-xL [10] | Oral bioavailability F [11] |
| --- | --- | --- | --- | --- | --- | --- | --- | --- | --- | --- | --- | --- | --- | --- | --- |
| ampholyte |  | > 4 |  |  |  | > 6 | Cc1ncsc1-c1ccc([C@H](C)NC(=O)[C@@H]2C[C@@H](O)CN2C(=O)[C@@H](NC(=O)CCCCCC(=O)N2CCN(CC[C@H](CSc3ccccc3)Nc3ccc(S(=O)(=O)NC(=O)c4ccc(N5CCN(CC6=C(c7ccc(Cl)cc7)CCC(C)(C)C6)CC5)cc4)cc3S(=O)(=O)C(F)(F)F)CC2)C(C)(C)C)cc1 [DT2216] |  | Intravenous |  |  |  |  | selectively induced degradation of Bcl-xL | < 0.03% |
| acidic |  |  |  |  |  |  | C=C[C@@H]1C[C@]1(NC(=O)[C@@H]1C[C@@H](Oc2ncc(OC)c3ccc(Cl)cc23)CN1C(=O)[C@@H](NC(=O)OC(C)(C)C)C(C)(C)C)C(=O)NS(=O)(=O)C1CC1 [asunaprevir] |  |  |  |  |  |  |  |  |

Further lines, the compound ahead of its results:

| SMILES | A/B: acid or base profile [1] | Ionization state at pH 7 [1] | log kw^IAM [2] | Δ log kw^IAM [2] | Chamelogk [3] | chromatographic logD [5] | chromatographic logD [5, 12] | Tumour growth in vivo [4] | Absorption [6] | Oral bioavailability F [7] | Clinical activity ([8]; advanced breast cancer patients) | Tolerability ([8]; all doses orally administered) | ER degradation [9] | Degradation of Bcl-xL [10] | Oral bioavailability F [11] |
| --- | --- | --- | --- | --- | --- | --- | --- | --- | --- | --- | --- | --- | --- | --- | --- |
| N#Cc1ccc(O[C@H]2CC[C@H](NC(=O)c3ccc(N4CCC(CN5CCN(c6cc7c(cc6F)C(=O)N(C6CCC(=O)NC6=O)C7=O)CC5)CC4)nn3)CC2)cc1Cl (stereo partly drawn) [ARV-110, bavdegalutamide] | basic and Base | predominantly neutral | 3.20 | 0.33 | 0.99 | 4.25 |  | significantly inhibited the growth | Oral | > 30% |  |  |  |  |  |
| O=C1CC[C@H](N2Cc3cc(N4CCN(CC5CCN(c6ccc([C@@H]7c8ccc(O)cc8CC[C@@H]7c7ccccc7)cc6)CC5)CC4)ccc3C2=O)C(=O)N1 [ARV-471, vepdegestrant] | basic and Base | predominantly neutral | 3.39 | 0.07 |  |  | 4.73 |  | Oral | > 30% | showed clinical activity | well tolerated | up to 97% |  |  |
| Cc1sc2c(c1C)C(c1ccc(Cl)cc1)=N[C@@H](CC(=O)Nc1ccc(OCCOCCOCCOCCNc3cccc4c3C(=O)N(C3CCC(=O)NC3=O)C4=O)cc1)c1nnc(C)n1-2 (stereo partly drawn) [ARV-825] | nonionizable |  |  |  |  |  |  |  |  |  |  |  |  |  |  |

From article PMC11542721, “Molecular properties, including chameleonicity, as essential tools for designing the next generation of oral beyond rule of five drugs” (ADMET & DMPK, 2024)
